US9738932B2, “Biomarkers for cardiovascular side-effects induced by cox-2 inhibitory compounds” (FIRALIS SAS, priority 2005, dated 2017)

Test system: mRNA expression in cardiovascular tissues
Test: Affymetrix GeneChip mRNA expression profiling of monkey tissues (iliac vein, pulmonary vein, aorta, carotid artery, heart) after two-week oral-gavage treatment
Details: iliac vein
[1] = group average (Vioxx without A60055)

`CS(=O)(=O)c1ccc(C2=C(c3ccccc3)C(=O)OC2)cc1` [Vioxx®, rofecoxib] was tested, and the “HFE (211329_x_at) fold change vs control” value (animal A60055) was 1.8 fold, the “HFE (211332_x_at) fold change vs control” value (animal A60055) was 1.6 fold and the “HFE (211863_x_at) fold change vs control” value (animal A60055) was 1.8 fold. The “HFE (211866_x_at) fold change vs control” value (animal A60055) was 1.6 fold, the “HHL (203020_at) fold change vs control” value (animal A60055) was 2.2 fold and the “HLA-A (211528_x_at) fold change vs control” value (animal A60055) was 2.4 fold. For the same compound, the “HLA-A (211529_x_at) fold change vs control” value (animal A60055) was 2.1 fold, the “HLA-A (211530_x_at) fold change vs control” value (animal A60055) was 2.3 fold and the “HLA-A (215313_x_at) fold change vs control” value (animal A60055) was 1.8 fold. The “HLA-B (208729_x_at) fold change vs control” value (animal A60055) was 1.8 fold, the “HLA-B (209140_x_at) fold change vs control” value (animal A60055) was 1.9 fold and the “HLA-B (211911_x_at) fold change vs control” value (animal A60055) was 1.8 fold. For the same compound, the “HLA-C (208812_x_at) fold change vs control” value (animal A60055) was 1.8 fold, the “HLA-C (214459_x_at) fold change vs control” value (animal A60055) was 2.4 fold and the “HLA-C (216526_x_at) fold change vs control” value (animal A60055) was 2.0 fold. For the same compound, the “HLA-DMA (217478_s_at) fold change vs control” value (animal A60055) was 2.9 fold, the “HLA-DMB (203932_at) fold change vs control” value (animal A60055) was 1.5 fold and the “HLA-DQA1 (212671_s_at) fold change vs control” value (animal A60055) was 8.2 fold. The “HLA-DQB1 (209823_x_at) fold change vs control” value (animal A60055) was 4.3 fold, the “HLA-DQB1 (211654_x_at) fold change vs control” value (animal A60055) was 7.7 fold and the “HLA-DQB1 (211656_x_at) fold change vs control” value (animal A60055) was 4.1 fold. The “HLA-DQB2 (212998_x_at) fold change vs control” value (animal A60055) was 10.8 fold, the “HLA-DRA (208894_at) fold change vs control” value (animal A60055) was 2.3 fold and the “HLA-DRA (210982_s_at) fold change vs control” value (animal A60055) was 2.1 fold. For the same compound, the “HLA-DRB1 (215193_x_at) fold change vs control” value (animal A60055) was 2.9 fold, the “HLA-DRB3 (209312_x_at) fold change vs control” value (animal A60055) was 1.9 fold and the “HLA-DRB6 (217362_x_at) fold change vs control” value (animal A60055) was 2.2 fold. The “HLA-E (200905_x_at) fold change vs control” value (animal A60055) was 1.6 fold, the “HLA-E (217456_x_at) fold change vs control” value (animal A60055) was 1.8 fold and the “HLA-F (204806_x_at) fold change vs control” value (animal A60055) was 2.1 fold. For the same compound, the “HLA-F (221875_x_at) fold change vs control” value (animal A60055) was 2.3 fold, the “ICAM1 (202638_s_at) fold change vs control” value (animal A60055) was 1.6 fold and the “ICAM1 (215485_s_at) fold change vs control” value (animal A60055) was 2.1 fold. For the same compound, the “ICSBP1 (204057_at) fold change vs control” value (animal A60055) was 2.2 fold, the “IFI27 (202411_at) fold change vs control” value (animal A60055) was 20.8 fold and the “IFI30 (201422_at) fold change vs control” value (animal A60055) was 2.1 fold. The “IFI44 (214453_s_at) fold change vs control” value (animal A60055) was 8.2 fold, the “IFIT1 (203153_at) fold change vs control” value (animal A60055) was 5.0 fold and the “IFIT2 (217502_at) fold change vs control” value (animal A60055) was 4.7 fold. The “IFIT4 (204747_at) fold change vs control” value (animal A60055) was 1.6 fold, the “IFITM2 (201315_x_at) fold change vs control” value (animal A60055) was 1.9 fold and the “IFITM3 (212203_x_at) fold change vs control” value (animal A60055) was 1.6 fold. The “IGF1 (209541_at) fold change vs control” value (animal A60055) was 1.8 fold, the “IGFBP4 (201508_at) fold change vs control” value (animal A60055) was 1.7 fold and the “IL1A (208200_at) fold change vs control” value (animal A60055) was 2.2 fold. The “IL2RG (204116_at) fold change vs control” value (animal A60055) was 2.4 fold, the “IL27RA (205926_at) fold change vs control” value (animal A60055) was 2.2 fold and the “INDO (210029_at) fold change vs control” value (animal A60055) was 6.5 fold. The “INPP5D (203332_s_at) fold change vs control” value (animal A60055) was 1.7 fold, the “IRF1 (202531_at) fold change vs control” value (animal A60055) was 3.9 fold and the “IRF7 (208436_s_at) fold change vs control” value (animal A60055) was 3.4 fold. For the same compound, the “ISGF3G (203882_at) fold change vs control” value (animal A60055) was 3.1 fold, the “ITGB2 (202803_s_at) fold change vs control” value (animal A60055) was 1.7 fold and the “JAK1 (214377_s_at) fold change vs control” value (animal A60055) was 2.1 fold. The “KLKB1 (206541_at) fold change vs control” value (animal A60055) was 2.2 fold, the “LAIR1 (208071_s_at) fold change vs control” value (animal A60055) was 3.5 fold and the “LCK (204890_s_at) fold change vs control” value (animal A60055) was 2.2 fold. For the same compound, the “LCP2 (205270_s_at) fold change vs control” value (animal A60055) was 1.7 fold, the “LILRB1 (207857_at) fold change vs control” value (animal A60055) was 2.1 fold and the “LILRB1 (211100_x_at) fold change vs control” value (animal A60055) was 1.8 fold. For the same compound, the “LILRB3 (208594_x_at) fold change vs control” value (animal A60055) was 1.7 fold, the “LILRB3 (210225_x_at) fold change vs control” value (animal A60055) was 2.5 fold and the “LRMP (204674_at) fold change vs control” value (animal A60055) was 2.6 fold. For the same compound, the “LY86 (205859_at) fold change vs control” value (animal A60055) was 1.8 fold, the “LY96 (206584_at) fold change vs control” value (animal A60055) was 1.8 fold and the “LYN (210754_s_at) fold change vs control” value (animal A60055) was 1.7 fold. The “MAF (209348_s_at) fold change vs control” value (animal A60055) was 1.7 fold, the “PCOLCE (202465_at) fold change vs control” value (animal A60055) was 2.2 fold and the “PLA2G4C (209785_s_at) fold change vs control” value (animal A60055) was 3.3 fold. For the same compound, the “PLCL2 (216217_at) fold change vs control” value (animal A60055) was 1.7 fold, the “PLSCR1 (202446_s_at) fold change vs control” value (animal A60055) was 2.1 fold and the “PRC1 (218009_s_at) fold change vs control” value (animal A60055) was 2.0 fold. The “PRG1 (201858_s_at) fold change vs control” value (animal A60055) was 1.8 fold, the “PRG1 (201859_at) fold change vs control” value (animal A60055) was 1.5 fold and the “PTPN22 (206060_s_at) fold change vs control” value (animal A60055) was 2.5 fold. For the same compound, the “PTPRC (207238_s_at) fold change vs control” value (animal A60055) was 1.8 fold, the “SOCS3 (206360_s_at) fold change vs control” value (animal A60055) was 1.8 fold and the “STAT1 (209969_s_at) fold change vs control” value (animal A60055) was 13.5 fold. For the same compound, the “STAT1 (AFFX-HUMISGF3A/M97935_5_at) fold change vs control” value (animal A60055) was 4.3 fold, the “STAT1 (AFFX-HUMISGF3A/M97935_MA_at) fold change vs control” value (animal A60055) was 5.3 fold and the “STAT1 (AFFX-HUMISGF3A/M97935_MB_at) fold change vs control” value (animal A60055) was 7.1 fold. The “TAPBP (208829_at) fold change vs control” value (animal A60055) was 1.6 fold, the “TCTEL1 (201999_s_at) fold change vs control” value (animal A60055) was 1.7 fold and the “TLR1 (210176_at) fold change vs control” value (animal A60055) was 1.7 fold. The “TLR2 (204924_at) fold change vs control” value (animal A60055) was 1.7 fold, the “TNFAIP3 (202643_s_at) fold change vs control” value (animal A60055) was 2.0 fold and the “TNFAIP3 (202644_s_at) fold change vs control” value (animal A60055) was 2.3 fold. The “TNFSF6 (210865_at) fold change vs control” value (animal A60055) was 1.9 fold, the “TNFSF10 (202687_s_at) fold change vs control” value (animal A60055) was 2.9 fold and the “TNFSF10 (202688_at) fold change vs control” value (animal A60055) was 2.8 fold. The “TRGC2 (211144_x_at) fold change vs control” value (animal A60055) was 2.0 fold, the “TRGC2 (216920_s_at) fold change vs control” value (animal A60055) was 2.4 fold and the “VCAM1 (203868_s_at) fold change vs control” value (animal A60055) was 4.1 fold. The “XCL1 (206366_x_at) fold change vs control” value (animal A60055) was 4.3 fold, the “XCL1 (214567_s_at) fold change vs control” value (animal A60055) was 5.4 fold and the “XLKD1 (219059_s_at) fold change vs control” value (animal A60055) was 1.8 fold. The “cig5 (213797_at) fold change vs control” value (animal A60055) was 7.1 fold, the “ACE (209749_s_at) mRNA expression, Avg fold changes vs control” value [1] was 0.9 fold and the “B2M (216231_s_at) mRNA expression, Avg fold changes vs control” value [1] was 1.2 fold.
